{
  "source": "patent US20200061076A1",
  "about": "“METHODS OF TREATING LEUKODYSTROPHIES” (Ramot at Tel-Aviv University Ltd., priority 2017, published 2020)",
  "key": {"WT astrocytes": {"test_system": "WT astrocytes", "experiment": "Cell survival assay, Crystal violet staining, WT astrocytes", "format": "cell-based, mouse", "details": "24 hours, untreated cells set to 100%", "experimental": "(§1) Cells were seeded on 96-wells plate at a density of 5000 cells per well. Astrocytes were seeded following coating with 0.001% PDL."}, "Mut primary astrocytes": {"test_system": "Mut primary astrocytes", "experiment": "mtDNA quantification, primary astrocytes", "format": "cell-based, mouse", "details": "1 or 10 μm, 6 hours (FIG. 17A)", "experimental": "Shown is average relative quantity (RQ) of 2-6 independent experiments normalized to their untreated controls ±SEM. […] Values of ATP-linked respiration (FIG. 17B) and maximal respiration (FIG. 17C) were analyzed and normalized to cell number."}, "Mut MEFs [1]": {"test_system": "Mut MEFs", "experiment": "mtDNA quantification (qPCR of mitochondrial 12S rRNA and nuclear 18S rRNA genes), MEFs", "format": "cell-based, mouse", "details": "0.1 μM-1 μM, 6 hours incubation (FIG. 2)", "experimental": "DNA extracted from WT and Mut MEFs that were treated or not for 6 hours with 0.1 μM, 1 μM or 10 μM of p8G5 (blue), Pre084 (known SIG-1R agonist, purple), pridopidine (known SIG-1R agonists, green) or NE-100 (known SIG-1R antagonist, yellow) was subjected to qPCR analysis of mitochondrial 12S rRNA and nuclear 18S rRNA genes."}, "Mut MEFs [2]": {"test_system": "Mut MEFs", "experiment": "Cell survival assay, Crystal violet staining, Mut MEFs", "format": "cell-based, mouse", "details": "for Survival (%) ± SEM Mut MEFs: 24 hours, untreated cells set to 100%", "experimental": "as §1"}, "[3]": {"test_system": "Mut MEFs (primary fibroblasts from Eif2b5 R132H/R132H mice)", "experiment": "Image-based single cell analysis of ROS level (cellROX)", "design": "species or system mouse", "details": "10 μM, 24 hours incubation, compared with WT level (FIG. 3)", "experimental": "Mut MEFs were treated with the indicated compounds at 10 μM for 24 hours followed by staining with fluorogenic dyes and image-based single-cell analysis. Shown is average effect on ROS level from at least 3-independent experiments ±SEM. All values are statistically significant, p<0.02. The extreme SEM points of all values are below the 90% cut-off, therefore the actual average reduction is between 12% and 29%. […] Mut MEFs were incubated or not for 24 hours with 10 μM of the indicated compound, washed and stained with Crystal Violet. Shown is average absorbance at 570 nm normalized (%) to non-treated cells of 3 independent experiments ±SEM, * p=0.0003. […] Mut MEFs were incubated or not for 24 hours with 10 μM of the indicated compound, washed and stained with JC1 and Hoechst followed by image-based single-cell analysis. […]\nTo assay the compounds, cellROX, a reactive oxygen species (ROS) fluorescent detector and a preferred in-situ mitochondrial content detector, was used for single cell-based imaging analysis as detailed previously (Raini et al., 2017). […] Compounds toxicity was evaluated by testing cell survival following 24 hours incubation with 10 μM of each compound using crystal violet staining (FIG. 14B). […] The other 19 compounds were not toxic; therefore, maximal working concentrations tolerated by the cells were further evaluated (Table 3 hereinbelow)."}, "Mut MEFs [4]": {"test_system": "Mut MEFs", "experiment": "Survival under Tunicamycin-induced ER stress, Crystal Violet, MEFs", "details": "20 μM, 24 hours, Tunicamycin during the last 22 hours (FIGS. 9, 10 and 18)", "procedure": "Mut MEFs were treated or not for 24 hours with the indicated concentrations of the indicated Sig-1R binders in the presence of 0.1 μg/ml Tunicamycin (Tun) during the last 22 hours. Following, the cells were washed, fixated and stained with Crystal Violet (CV) followed by measurement of absorbance at 570 nm. Shown is average % of CV staining relative to cells not treated with tunicamycin nor Sig-1R binder ±SEM of 3 independent experiments. *p<0.03.\nFollowing, the cells were washed, fixated and stained with Crystal Violet and absorbance at 570 nm was measured. Data is presented relative to cells of the corresponding genotype not treated with p8G5 nor Tunicamycin. Shown is average % of CV staining ±SEM of 3 independent experiments.\nMut MEFs were treated or not for 24 hours with 10, 20 or 30 μM of the indicated Sig-1R binders in the presence of 50 ng/ml Tunicamycin (Tun) during the last 22 hours. Following, the cells were washed, fixated and stained with Crystal Violet (CV) followed by measurement of absorbance at 570 nm. Shown is % of CV staining relative to cells not treated with tunicamycin nor Sig-1R binder ±SEM of 3 independent experiments, *p<0.05.\nMut MEFs were incubated or not with the indicated concentrations of the indicated compounds for 2 hours followed by addition of 50 ng/ml Tunicamycin (Tun) for additional 22 hours, stained with Crystal Violet followed by measurement of absorbance at 570 nm. Shown is average normalized to Tun-treated cells without any compound ±SEM of 3 independent experiments. * not significant; ** p<0.02; *** all values p<0.04."}},
  "data": [
    {"compound": "Cc1cccc(OCCCCCN2CCOCC2)c1", "note": "[H8 (p8G5), 4-[5-(3-methylphenoxy)pentyl]morpholine]", "values": [
      {"measurement": "Survival (%) ± SEM WT astrocytes", "setting": "WT astrocytes; 1 μM", "result": "132 ± 10.7", "unit": "%"},
      {"measurement": "Survival (%) ± SEM WT astrocytes", "setting": "WT astrocytes; 10 μM", "result": "102 ± 3.8", "unit": "%"},
      {"measurement": "Survival (%) ± SEM WT astrocytes", "setting": "WT astrocytes; 30 μM", "result": "99 ± 3.2", "unit": "%"},
      {"measurement": "mitochondrial content per cell in astrocytes", "setting": "Mut primary astrocytes", "result": "no effect on mitochondrial content per cell"},
      {"measurement": "mitochondrial content in Mut MEFs", "setting": "Mut MEFs [1]", "result": "lowered the abnormal high mitochondrial content"},
      {"measurement": "Survival (%) ± SEM Mut MEFs", "setting": "Mut MEFs [2]; 0.1 μM", "result": "104 ± 4.6", "unit": "%"},
      {"measurement": "Survival (%) ± SEM Mut MEFs", "setting": "Mut MEFs [2]; 1 μM", "result": "102 ± 3.3", "unit": "%"},
      {"measurement": "Survival (%) ± SEM Mut MEFs", "setting": "Mut MEFs [2]; 10 μM", "result": "99 ± 2.6", "unit": "%"},
      {"measurement": "Survival (%) ± SEM Mut MEFs", "setting": "Mut MEFs [2]; 30 μM", "result": "105 ± 13", "unit": "%"},
      {"measurement": "effect on survival of Mut cells", "setting": "Mut MEFs [2]; as high as 30 μM (FIG. 4, Table 3)", "result": "did not have any negative effect on the survival"},
      {"measurement": "level of ROS (CellROX) in Mut cells", "setting": "[3]", "result": "corrected the abnormal level of ROS"},
      {"measurement": "survival of Mut MEFs under Tunicamycin ER-stress", "setting": "Mut MEFs [4]", "result": "attenuated the apoptotic effect"}
    ]}
  ]
}
